Assay results reported in ChEMBL document CHEMBL1201862, “PubChem BioAssay data set” (2004).
Active and inactive are the calls of the source.

Columns and labels:
[1] = molecular target: Cyclin-dependent kinase 5/CDK5 activator 1 (Homo sapiens, UniProt Q00535); assay: CDK5/p35 kinase inhibitors, dose response, biochemical, cherry-picked samples, set 2 (AID 504545)
[2] = molecular target: T1, Rac GTPase-activating protein 1 (Homo sapiens, UniProt Q9H0H5); assay: MgcRacGAP GTPase-activating activity inhibitors, confirmation, biochemical, ADP Hunter fluorescence, primary and confirmatory (AID 624330); format: functional
T1 sequence (Q9H0H5 whole entry): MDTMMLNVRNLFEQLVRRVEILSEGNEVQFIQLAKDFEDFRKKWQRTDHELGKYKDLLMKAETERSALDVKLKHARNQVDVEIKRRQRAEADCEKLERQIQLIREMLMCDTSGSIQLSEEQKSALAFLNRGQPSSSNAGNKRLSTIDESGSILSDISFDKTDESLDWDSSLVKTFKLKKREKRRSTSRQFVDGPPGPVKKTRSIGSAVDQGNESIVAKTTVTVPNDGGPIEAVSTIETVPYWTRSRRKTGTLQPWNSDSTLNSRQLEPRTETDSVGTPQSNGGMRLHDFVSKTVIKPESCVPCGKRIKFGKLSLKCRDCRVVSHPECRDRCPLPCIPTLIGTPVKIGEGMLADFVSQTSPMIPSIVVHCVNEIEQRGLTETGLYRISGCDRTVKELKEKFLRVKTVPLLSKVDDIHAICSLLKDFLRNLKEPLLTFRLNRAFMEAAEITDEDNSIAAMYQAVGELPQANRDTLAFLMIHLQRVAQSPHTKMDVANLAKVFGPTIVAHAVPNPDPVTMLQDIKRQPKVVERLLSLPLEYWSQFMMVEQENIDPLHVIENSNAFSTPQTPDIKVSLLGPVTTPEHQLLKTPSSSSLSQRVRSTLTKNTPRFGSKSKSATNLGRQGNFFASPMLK

[3] = molecular target: Neurotensin receptor type 1 (Homo sapiens, UniProt P30989); format: functional;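 note: Image-based confirmatory dose-response assay measuring agonist activity at NTR1; NTR1-expressing U2OS osteosarcoma cells imaged for beta-arrestin GFP spot formation; agonist potency where compounds increase beta-arrestin recruitment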
[4] = inhibitors of firefly luciferase expression or activity, dose response, H4 neuroglioma cells, luminescence (AID 1990); format: functional, cell-based
[5] = Luminescence Cell-Based Dose Response HTS to Identify Inhibitors of 5'UTR Stem-Loop Driven Prion Protein mRNA Translation in H4 Neuroglioblastoma Cells. [Related pubchem assays: 1827 (Project Summary), 1813 (Primary HTS)]; format: functional
[6] = cytotoxicity in HEK-293T cells, dose response, cytotoxicity control for BCR NF-kB inhibitor project, luminescence, B-cell screen hits (AID 489021); format: functional, cell-based;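 note: HEK-293T cells carrying an NF-kB luciferase reporter; cells exposed to compound for about 14 hours before viability readout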
[7] = Luminescence Cell-Based Dose Retest to Confirm Inhibitors of Cancer Stem Cells. [Related pubchem assays (depositor defined):AID2717, AID2721]; format: functional; conditions: Homo sapiens
HeLa = assay: HeLa cell cytotoxicity, dose response, cytotoxicity control, 24 h, cherry-picked samples (AID 504726); format: functional, cell-based; conditions: Homo sapiens;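 note: potency for cytotoxicity as loss of luminescence signal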
Caspase-6 = molecular target: T2, Caspase-6 (Homo sapiens, UniProt P55212); assay: human caspase-6 inhibitors, dose response, biochemical, VEID-R110 fluorescence, cherry-pick (AID 720632)
T2 sequence (P55212 whole entry): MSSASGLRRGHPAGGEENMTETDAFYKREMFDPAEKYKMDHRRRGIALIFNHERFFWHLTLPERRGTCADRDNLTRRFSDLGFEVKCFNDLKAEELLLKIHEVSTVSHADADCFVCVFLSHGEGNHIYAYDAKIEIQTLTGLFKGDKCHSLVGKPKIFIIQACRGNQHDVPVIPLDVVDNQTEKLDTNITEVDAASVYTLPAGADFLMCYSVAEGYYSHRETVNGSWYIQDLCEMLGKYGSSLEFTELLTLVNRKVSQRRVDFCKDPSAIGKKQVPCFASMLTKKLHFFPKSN

Cytochrome P450 2D6 = Cytochrome P450 2D6 (Homo sapiens, UniProt P10635); assay: qHTS Assay for Inhibitors and Substrates of Cytochrome P450 2D6. [Related pubchem assays: 410 ]; format: ADME; conditions: read-out: Potency
Cytochrome P450 2C9 = Cytochrome P450 2C9 (Homo sapiens, UniProt P11712); conditions: Potency
[8] = THP-1 cell cytotoxicity, dose response, cytotoxicity control for non-replicating M. tuberculosis project (AID 489025); format: functional
[9] = molecular target: T3, Heat shock factor protein 1 (Mus musculus, UniProt P38532); assay: HSF1 potentiators in luciferase reporter cells, confirmation, cell-based, NIH3T3, luminescence, dose retest (AID 435004); format: functional;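 note: stress induced by proteasome inhibitor MG132 added 30 min after compound; luciferase reporter driven by HSF1 response element in NIH3T3 cells; actives raise luminescence as potentiators of the MG132 stress response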
T3 sequence (P38532 whole entry): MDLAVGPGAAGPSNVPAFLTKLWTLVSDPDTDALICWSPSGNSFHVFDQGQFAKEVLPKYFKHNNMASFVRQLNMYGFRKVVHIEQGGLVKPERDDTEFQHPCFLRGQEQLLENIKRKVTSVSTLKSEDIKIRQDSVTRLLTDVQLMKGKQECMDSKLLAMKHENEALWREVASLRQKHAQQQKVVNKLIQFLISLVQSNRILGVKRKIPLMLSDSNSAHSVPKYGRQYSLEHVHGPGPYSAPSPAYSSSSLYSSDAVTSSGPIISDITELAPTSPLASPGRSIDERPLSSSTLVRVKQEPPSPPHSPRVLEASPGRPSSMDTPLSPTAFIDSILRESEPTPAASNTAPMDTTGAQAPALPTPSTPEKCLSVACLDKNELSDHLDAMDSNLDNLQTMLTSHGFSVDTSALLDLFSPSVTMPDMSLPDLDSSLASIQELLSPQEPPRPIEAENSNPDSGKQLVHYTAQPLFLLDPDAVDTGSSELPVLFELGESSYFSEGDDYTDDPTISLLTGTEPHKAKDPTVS

[10] = Luminescence Cell-Based Dose Response HTS to Identify Activators of Luciferase Translation or Activity in H4-C Neuroglioblastoma Cells. [Related pubchem assays: 1829 (Project Summary), 1814 (Primary HTS)]; format: functional
[11] = Luminescence Cell-Based Dose Retest to Confirm Activators of 5'UTR Stem-Loop Driven Alpha-Synuclein mRNA Translation in H4 Neuroglioblastoma Cells. [Related pubchem assays (depositor defined):AID1813, AID1829]; format: functional
H4 = assay: Luminescence Cell-Based Dose Response HTS to Identify Activators of 5'UTR Stem-Loop Driven Prion Protein mRNA Translation in H4 Neuroglioblastoma Cells. [Related pubchem assays: 1829 (Project Summary), 1814 (Primary HTS)]; format: functional; conditions: Homo sapiens
[12] = Luminescence Cell-Based Dose Response HTS to Identify Activators of Luciferase Translation or Activity in H4 […] Cells. [Related pubchem assays: 1829 (Project Summary), 1814 (Primary HTS)]; format: functional
[13] = Luminescence Cell-Based Dose Response HTS to Identify Activators of 5'UTR Stem-Loop Driven Prion Protein mRNA Translation in H4-C Neuroglioblastoma Cells. [Related pubchem assays: 1829 (Project Summary), 1814 (Primary HTS)]; format: functional
[14] = Luminescence Cell-Based Dose Confirmation HTS to Identify Activators of 5'UTR Stem-Loop Driven Alpha-Synuclein mRNA Translation in H4 Neuroglioblastoma Cells. [Related pubchem assays: 1829 (Project Summary), 1814 (Primary HTS)]; format: functional
[15] = molecular target: Eukaryotic translation initiation factor 4H (Homo sapiens, UniProt Q15056); assay: eIF4H inhibition in translation initiation, SAR follow-up (AID 435011); format: functional
[16] = molecular target: T4, Polyadenylate-binding protein 1 (Homo sapiens, UniProt P11940); assay: PABP inhibition in translation initiation, SAR follow-up (AID 435018); format: functional
Beta-galactosidase = Beta-galactosidase (Escherichia coli, UniProt Q8VNN2); format: functional
[17] = molecular target: T5, Kappa-type opioid receptor (Homo sapiens, UniProt P41145); format: functional
[18] = molecular target: T5, Kappa-type opioid receptor; format: functional; remark: listed apart in the source
[19] = molecular target: Acyl-homoserine lactone acylase PvdQ (Pseudomonas aeruginosa (strain LESB58), UniProt Q9I194); assay: P. aeruginosa PvdQ acylase inhibitors, dose response, biochemical, fluorescence, plate reader and imaging, cherry-picks (AID 493231)
[20] = molecular target: T4, Polyadenylate-binding protein 1; assay: PABP1 MLLE–PAM2 interaction inhibitors, dose response, miRNA deadenylation inhibitor project, biochemical, fluorescence polarization, Cy5-PAM2 peptide, secondary (AID 602260); format: functional; conditions: read-out: IC50_Mean
[21] = molecular target: T4, Polyadenylate-binding protein 1; assay: PABP1 MLLE–PAM2 binding inhibitor potency, dose response, biochemical, fluorescence polarization, FITC-PAM2 peptide (AID 602259); format: functional; conditions: read-out: IC50_Mean
cells = format: functional
[22] = microbe, parasite or virus in culture; format: functional; conditions: Mycobacterium tuberculosis
[23] = molecular target: T6, Microphthalmia-associated transcription factor (Homo sapiens, UniProt O75030); assay: TRPM1 promoter luciferase signal decrease, dose response, MITF inhibitor project, cell-based, SK-MEL-5, cherry-picked, set 3 (AID 493073); format: functional
T6 sequence (O75030 whole entry): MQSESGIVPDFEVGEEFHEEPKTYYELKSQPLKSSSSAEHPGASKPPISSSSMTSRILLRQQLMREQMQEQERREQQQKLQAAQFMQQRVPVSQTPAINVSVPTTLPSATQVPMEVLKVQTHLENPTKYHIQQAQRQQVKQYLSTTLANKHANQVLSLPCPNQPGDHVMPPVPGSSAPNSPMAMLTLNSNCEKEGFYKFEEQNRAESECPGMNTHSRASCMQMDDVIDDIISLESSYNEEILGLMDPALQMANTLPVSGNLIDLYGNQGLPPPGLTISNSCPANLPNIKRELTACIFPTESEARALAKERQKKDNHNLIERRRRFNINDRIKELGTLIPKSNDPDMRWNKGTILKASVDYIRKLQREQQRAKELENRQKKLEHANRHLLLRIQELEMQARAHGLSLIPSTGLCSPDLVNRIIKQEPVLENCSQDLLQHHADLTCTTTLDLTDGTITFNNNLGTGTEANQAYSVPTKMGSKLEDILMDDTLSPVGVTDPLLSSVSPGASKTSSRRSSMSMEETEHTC

Procathepsin L = Procathepsin L (Homo sapiens, UniProt P07711)
Aspartyl aminopeptidase = molecular target: T7, Aspartyl aminopeptidase (Plasmodium falciparum 3D7, UniProt Q8I2J3)
T7 sequence (Q8I2J3 whole entry): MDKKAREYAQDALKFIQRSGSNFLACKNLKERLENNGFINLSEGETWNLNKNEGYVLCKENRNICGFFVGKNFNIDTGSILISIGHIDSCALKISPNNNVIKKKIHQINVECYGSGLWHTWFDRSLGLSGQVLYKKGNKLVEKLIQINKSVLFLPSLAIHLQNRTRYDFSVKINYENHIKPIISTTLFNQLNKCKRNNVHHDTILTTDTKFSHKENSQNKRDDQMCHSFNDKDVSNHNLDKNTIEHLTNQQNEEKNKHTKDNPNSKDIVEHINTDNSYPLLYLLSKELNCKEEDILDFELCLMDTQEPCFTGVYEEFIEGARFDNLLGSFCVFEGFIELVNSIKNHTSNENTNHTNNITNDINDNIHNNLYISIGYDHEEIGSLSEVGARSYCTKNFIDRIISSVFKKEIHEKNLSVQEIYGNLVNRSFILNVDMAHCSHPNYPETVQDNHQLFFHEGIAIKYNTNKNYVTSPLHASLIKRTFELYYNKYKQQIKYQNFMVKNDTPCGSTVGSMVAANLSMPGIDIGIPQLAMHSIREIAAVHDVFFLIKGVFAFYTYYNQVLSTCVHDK

T4 sequence (P11940 whole entry): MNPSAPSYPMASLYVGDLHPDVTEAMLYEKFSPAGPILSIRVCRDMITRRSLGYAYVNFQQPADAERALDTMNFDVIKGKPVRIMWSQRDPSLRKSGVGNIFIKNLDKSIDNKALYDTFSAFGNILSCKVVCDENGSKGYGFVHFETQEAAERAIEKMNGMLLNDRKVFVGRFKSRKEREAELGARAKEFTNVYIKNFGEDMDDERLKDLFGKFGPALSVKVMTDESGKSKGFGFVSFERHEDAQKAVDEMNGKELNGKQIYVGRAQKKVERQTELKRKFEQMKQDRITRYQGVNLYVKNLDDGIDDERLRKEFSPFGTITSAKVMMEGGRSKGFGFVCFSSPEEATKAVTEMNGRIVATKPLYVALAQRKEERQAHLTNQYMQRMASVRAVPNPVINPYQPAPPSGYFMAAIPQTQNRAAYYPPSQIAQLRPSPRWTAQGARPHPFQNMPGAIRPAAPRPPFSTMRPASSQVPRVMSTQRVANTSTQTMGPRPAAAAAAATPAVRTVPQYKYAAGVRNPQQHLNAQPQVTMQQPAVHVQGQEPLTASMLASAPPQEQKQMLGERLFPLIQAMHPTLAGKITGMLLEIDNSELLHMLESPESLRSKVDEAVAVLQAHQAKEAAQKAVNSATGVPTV
Chain of Acyl-homoserine lactone acylase PvdQ (Q9I194 24-193 limits assumed): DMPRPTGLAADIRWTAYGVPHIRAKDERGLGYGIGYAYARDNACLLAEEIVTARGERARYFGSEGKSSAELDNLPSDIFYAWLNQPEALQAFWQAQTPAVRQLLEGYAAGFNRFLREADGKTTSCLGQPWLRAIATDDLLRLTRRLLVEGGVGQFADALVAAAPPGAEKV
Chain of Acyl-homoserine lactone acylase PvdQ (Q9I194 217-762 limits assumed): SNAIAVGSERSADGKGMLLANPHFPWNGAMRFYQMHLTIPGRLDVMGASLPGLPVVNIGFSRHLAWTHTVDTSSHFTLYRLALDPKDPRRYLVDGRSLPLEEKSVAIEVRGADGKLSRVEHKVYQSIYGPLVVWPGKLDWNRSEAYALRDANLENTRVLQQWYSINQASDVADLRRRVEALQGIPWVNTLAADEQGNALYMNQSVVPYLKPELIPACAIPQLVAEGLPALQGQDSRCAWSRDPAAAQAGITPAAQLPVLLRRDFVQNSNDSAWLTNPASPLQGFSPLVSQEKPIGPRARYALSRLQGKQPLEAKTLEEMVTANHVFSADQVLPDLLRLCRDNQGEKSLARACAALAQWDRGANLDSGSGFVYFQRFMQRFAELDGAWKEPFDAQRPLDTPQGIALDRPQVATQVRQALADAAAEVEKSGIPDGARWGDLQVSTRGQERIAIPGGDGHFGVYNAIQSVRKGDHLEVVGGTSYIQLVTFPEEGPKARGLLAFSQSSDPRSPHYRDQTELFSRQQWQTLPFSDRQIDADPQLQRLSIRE
T5 sequence (P41145 whole entry): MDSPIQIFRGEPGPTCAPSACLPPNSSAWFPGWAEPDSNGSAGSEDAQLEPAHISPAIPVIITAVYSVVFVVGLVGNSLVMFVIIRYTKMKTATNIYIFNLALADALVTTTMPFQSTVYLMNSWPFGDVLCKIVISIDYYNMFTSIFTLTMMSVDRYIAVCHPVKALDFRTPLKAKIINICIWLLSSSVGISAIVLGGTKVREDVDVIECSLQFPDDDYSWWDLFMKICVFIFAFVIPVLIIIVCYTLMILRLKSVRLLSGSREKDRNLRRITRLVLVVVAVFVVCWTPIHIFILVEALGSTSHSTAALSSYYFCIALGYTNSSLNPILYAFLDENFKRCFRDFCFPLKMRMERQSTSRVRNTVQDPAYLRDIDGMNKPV
Chain of Cyclin-dependent kinase 5/CDK5 activator 1 (Q00535 whole entry): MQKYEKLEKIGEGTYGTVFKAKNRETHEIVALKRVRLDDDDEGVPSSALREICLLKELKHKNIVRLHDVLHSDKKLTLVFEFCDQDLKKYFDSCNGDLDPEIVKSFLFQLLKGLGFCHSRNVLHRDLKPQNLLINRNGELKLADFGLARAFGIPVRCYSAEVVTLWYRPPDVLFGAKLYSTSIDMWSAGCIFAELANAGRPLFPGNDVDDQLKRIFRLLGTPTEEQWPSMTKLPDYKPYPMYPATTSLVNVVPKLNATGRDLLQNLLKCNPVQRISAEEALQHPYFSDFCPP
Chain of Cyclin-dependent kinase 5/CDK5 activator 1 (Q15078 whole entry, further chain): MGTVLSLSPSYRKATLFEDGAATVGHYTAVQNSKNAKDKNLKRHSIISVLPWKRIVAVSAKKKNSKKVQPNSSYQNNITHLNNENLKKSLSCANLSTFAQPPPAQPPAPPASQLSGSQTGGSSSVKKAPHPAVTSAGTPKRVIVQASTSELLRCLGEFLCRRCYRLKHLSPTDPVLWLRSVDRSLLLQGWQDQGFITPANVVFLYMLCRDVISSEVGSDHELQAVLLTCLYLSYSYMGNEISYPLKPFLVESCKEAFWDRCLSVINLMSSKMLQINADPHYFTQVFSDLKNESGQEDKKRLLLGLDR
Chain of Neurotensin receptor type 1 (P30989 whole entry): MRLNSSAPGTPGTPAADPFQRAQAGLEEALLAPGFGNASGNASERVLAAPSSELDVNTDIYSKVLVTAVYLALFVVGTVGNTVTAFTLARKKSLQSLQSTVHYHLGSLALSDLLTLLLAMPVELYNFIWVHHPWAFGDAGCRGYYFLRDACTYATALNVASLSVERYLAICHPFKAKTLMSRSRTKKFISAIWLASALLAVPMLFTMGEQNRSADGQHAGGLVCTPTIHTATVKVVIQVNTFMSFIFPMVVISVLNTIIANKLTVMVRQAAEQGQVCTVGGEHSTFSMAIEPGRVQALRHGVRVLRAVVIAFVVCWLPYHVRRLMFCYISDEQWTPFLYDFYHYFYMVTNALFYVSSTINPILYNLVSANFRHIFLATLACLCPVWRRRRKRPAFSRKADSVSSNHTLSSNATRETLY
Chain of Cytochrome P450 2C9 (P11712 whole entry): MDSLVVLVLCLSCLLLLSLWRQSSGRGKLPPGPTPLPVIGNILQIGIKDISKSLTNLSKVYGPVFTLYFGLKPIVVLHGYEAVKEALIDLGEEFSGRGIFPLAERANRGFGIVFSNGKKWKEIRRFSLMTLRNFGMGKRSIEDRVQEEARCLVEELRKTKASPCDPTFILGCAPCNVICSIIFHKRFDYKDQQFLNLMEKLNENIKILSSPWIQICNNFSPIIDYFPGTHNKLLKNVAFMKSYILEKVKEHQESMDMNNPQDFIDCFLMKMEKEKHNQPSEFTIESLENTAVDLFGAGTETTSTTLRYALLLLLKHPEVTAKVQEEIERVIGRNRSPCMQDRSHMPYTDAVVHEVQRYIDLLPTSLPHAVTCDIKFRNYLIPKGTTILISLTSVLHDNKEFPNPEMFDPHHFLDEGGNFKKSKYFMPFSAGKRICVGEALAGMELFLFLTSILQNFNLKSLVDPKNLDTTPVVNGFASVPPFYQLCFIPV
Chain of Beta-galactosidase (Q8VNN2 whole entry): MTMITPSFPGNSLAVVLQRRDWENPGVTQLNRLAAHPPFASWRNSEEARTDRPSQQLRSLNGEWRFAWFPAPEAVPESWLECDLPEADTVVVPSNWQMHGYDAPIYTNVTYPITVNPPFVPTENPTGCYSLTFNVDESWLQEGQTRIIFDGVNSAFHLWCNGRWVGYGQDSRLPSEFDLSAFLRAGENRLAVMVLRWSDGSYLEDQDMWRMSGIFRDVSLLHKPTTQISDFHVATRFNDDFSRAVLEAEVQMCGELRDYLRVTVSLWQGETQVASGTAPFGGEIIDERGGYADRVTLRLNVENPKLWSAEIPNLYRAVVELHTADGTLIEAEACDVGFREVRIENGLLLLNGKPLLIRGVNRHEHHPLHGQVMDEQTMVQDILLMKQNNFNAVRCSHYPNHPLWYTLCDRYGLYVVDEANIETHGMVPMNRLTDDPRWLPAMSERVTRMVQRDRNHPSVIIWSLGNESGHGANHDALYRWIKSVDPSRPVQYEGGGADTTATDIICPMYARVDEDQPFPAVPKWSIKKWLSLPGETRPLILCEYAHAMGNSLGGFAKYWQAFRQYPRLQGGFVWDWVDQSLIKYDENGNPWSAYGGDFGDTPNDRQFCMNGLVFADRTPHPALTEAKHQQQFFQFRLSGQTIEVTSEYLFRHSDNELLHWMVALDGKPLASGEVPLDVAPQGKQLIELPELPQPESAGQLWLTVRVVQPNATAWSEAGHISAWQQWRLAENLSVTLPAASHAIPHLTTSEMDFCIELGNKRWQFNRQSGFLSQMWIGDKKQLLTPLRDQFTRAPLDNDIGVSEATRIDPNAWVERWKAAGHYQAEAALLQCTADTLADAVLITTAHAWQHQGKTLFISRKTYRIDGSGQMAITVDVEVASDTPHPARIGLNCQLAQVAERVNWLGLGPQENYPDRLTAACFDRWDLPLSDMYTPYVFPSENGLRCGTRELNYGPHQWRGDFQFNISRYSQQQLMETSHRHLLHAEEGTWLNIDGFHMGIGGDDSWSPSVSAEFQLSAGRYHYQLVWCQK
Chain of Procathepsin L (P07711 whole entry): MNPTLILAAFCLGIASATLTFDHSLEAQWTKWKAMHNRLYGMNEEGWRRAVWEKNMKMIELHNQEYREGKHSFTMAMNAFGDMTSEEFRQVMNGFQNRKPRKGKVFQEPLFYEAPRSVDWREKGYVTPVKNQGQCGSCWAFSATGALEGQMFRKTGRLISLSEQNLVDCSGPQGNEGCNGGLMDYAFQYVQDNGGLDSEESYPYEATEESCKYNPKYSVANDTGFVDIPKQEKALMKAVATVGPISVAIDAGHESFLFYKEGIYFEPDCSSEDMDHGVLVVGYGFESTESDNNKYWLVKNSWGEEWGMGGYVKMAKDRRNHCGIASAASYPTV

COc1cc2ccccc2ccc1=NO
AC50 [1]: 34.7 µM (active)

O=C(COc1ccccc1)NCC(=O)N/N=C/c1ccc(O)cc1O
IC50 [2]: 69.4 µM (active) | EC50 [3]: > 40 µM (inactive)

Cc1nc2cc(-c3ccccc3)nn2c(C)c1CCC(=O)NCc1ccco1
EC50 [4]: 17.6 µM (active) | EC50 [5]: 9.65 µM (active) | IC50 [6]: > 80 µM (inactive)

O=C(Oc1ccc(Br)cc1C(=O)/C=C/c1ccccc1F)c1ccco1
AC50 [7]: 5.03 µM (active) | EC50 [3]: 15.9 µM (active)

O=C(COC(=O)c1ccc([N+](=O)[O-])o1)NCCCc1ccccc1
AC50 (HeLa): > 350 µM (inactive) | AC50 (Caspase-6): 35.2 µM (active)

CC(C)C[C@@H](CC(=O)N[C@H](CC(=O)N[C@@H]1CCNC[C@H]1C(=O)N[C@H](CC(=O)N[C@@H](CCC(=O)O)CC(=O)O)CC(C)C)C(C)C)NC(=O)[C@@H]1CCCC[C@H]1N
AC50 (Cytochrome P450 2D6): 39.8 µM (inconclusive) | AC50 (Cytochrome P450 2C9): 39.8 µM (inconclusive)

Cc1ccc(O)c(C(=O)c2cc(C#N)c(=O)n(-c3nccs3)c2)c1
CC50 [8]: 29.6 µM (active)

Cc1csc2nc(CCNS(=O)(=O)c3cccs3)cn12
EC50 [9]: 254 µM (active) | EC50 [10]: 3.07 µM (active) | EC50 [11]: 1.85 µM (active) | EC50 (H4): 96.8 µM (active) | EC50 [12]: 45.9 µM (active) | EC50 [13]: 13.1 µM (active) | EC50 [14]: 2.18 µM (active)

COC(=O)c1[nH]c2ccccc2c1Sc1ccccc1
IC50 [15]: > 100 µM (inactive) | IC50 [16]: > 100 µM (inactive)

COc1ccc(C)c(-n2c(=O)n(Cc3ccccc3)c(=O)c3[nH]cnc32)c1
EC50 (Beta-galactosidase): 9.23 µM (active) | IC50 [17]: 6.84 µM (active) | IC50 [18]: > 32 µM

CCOCC(=O)Nc1nc2ccc(C)cc2s1
AC50 [19]: 24 µM (active) | IC50 [20]: > 66 µM (inactive) | IC50 [21]: > 66 µM (inactive) | IC50 (cells): 34.5 µM (active)

O=[N+]([O-])c1ccc(Sc2cc[n+]([O-])c3ccccc23)c([N+](=O)[O-])c1
CC50 [22]: 12.1 µM (active) | AC50 [23]: 5.92 µM (active) | IC50 [6]: > 80 µM (inactive)

CCOC(=O)OCC1OC(C#Cc2ccc(C(C)(C)C)cc2)C=CC1OC(=O)OCC (stereo not drawn)
AC50 (Cytochrome P450 2C9): 0.0025 µM (inconclusive)

CO/N=C/c1cn(-c2ccc(Cl)cc2)nn1
AC50 [19]: 5.97 µM (active)

O=C(NCCc1ccc(O)c(O)c1)C1COc2ccccc2O1 (stereo not drawn)
EC50 [9]: 28.5 µM (active) | IC50 (Procathepsin L): > 59.6 µM (not active) | IC50 (Aspartyl aminopeptidase): 2.11 µM (active)

Nc1nc(Nc2ccccc2)nc(NCCO)c1[N+](=O)[O-]
AC50 [1]: 17.5 µM (active)
